Test results: PMC12418703, “Avenanthramides and avenacosides as biomarkers of oat intake: a pharmacokinetic study of solid and liquid oat consumption under single and repeated dose conditions” (Nutrition Journal, 2025)

Test: PK-model estimation of oat product dose and dosing interval needed to reach plasma concentration above LLOQ
Set-up: species or system humans
Settings: for estimated volume of liquid oats resulting in plasma concentration above LLOQ: consumption interval every 4 h; for estimated intake volume of liquid oats needed for plasma concentration above LLOQ: intake every 8 h
Protocol: A compartmental model with two absorption compartments and a plasma compartment with linear elimination for each molecule separately described better the experimental data from the single dose intake compared to a compartmental model of a single absorption compartment (Figure S3). Parameter estimation was performed using the non-linear mixed-effects approach with lognormal inter-individual variability in all three model parameters: distribution volume over bioavailability ( [drawing 1] ), absorption rate ( [drawing 2] ), elimination rate ( [drawing 3] ), (R package nlmixr2 [34]). The results were reported as population means with coefficient of variation (Table S1). The area under the curve (AUC) and Cmax were normalized (AUCnorm) for the nmol intake of each molecule. Statistical analysis was conducted with R software environment. The compounds were compared for their PK parameters within the same product and between products using repeated ANOVA approach (lme4 package) and then by pairwise comparison adjusted for post hoc Tukey-Kramer honestly significant difference. All statistical analyses were performed on log- transformed data. Based on the PK models built on the single-dose data, a linear relationship ( [drawing 4] was derived between dose and dosing interval (intake frequency, [drawing 5] ) to estimate the AVA intake needed to reach an average concentration (at steady state) that is measurable above lower limit of quantification (LLOQ). To translate the intake of AVAs from the linear relationship (Dose) to corresponding oat flake product intake, we estimated the content of AVAs in different products using reported data from the literature and assigned values, where possible. For the flakes, information in literature was available for AVA 2c, AVA 2p and AVA 2 f. Therefore, an average value for these compounds per food product was assigned while for the oat drink and for the less known AVAs; AVA 2pd and AVA 2fd, an average value based on the measured products in our laboratory was used (Table S2). In the second phase of the intervention, following a repeated dosing period of 4 days, plasma concentrations were determined over a dosing interval recorded by the individuals and were compared to their corresponding predicted values in blood. This comparison allowed for an assessment of the model’s accuracy in predicting AVAs’ behavior under repeated dosing conditions. Only experimental data above the limit of quantification were used for the comparison. Further, the data were tested for outliers with the interquartile range (IQR) approach and five observations were considered outliers and were removed.

## O=C(/C=C/c1ccc(O)cc1)Nc1ccc(O)cc1C(=O)O [AVA 2p]
  estimated volume of liquid oats resulting in plasma concentration above LLOQ: about 30 mL
  estimated intake volume of liquid oats needed for plasma concentration above LLOQ: 65 mL

## COc1cc(/C=C/C(=O)Nc2ccc(O)cc2C(=O)O)ccc1O [AVA 2f]
Oat flakes consumed every 4 h
  average amount of oat flakes needed to reach measurable plasma levels (above LLOQ): 235 g
Oat flakes consumed every 8 h
  amount of oat flakes needed to reach measurable plasma levels (above LLOQ): 470 g

## O=C(/C=C/c1ccc(O)c(O)c1)Nc1ccc(O)cc1C(=O)O [AVA 2c]
  estimated volume of liquid oats resulting in plasma concentration above LLOQ: about 30 mL
  estimated intake volume of liquid oats needed for plasma concentration above LLOQ: 65 mL
